Measurements as given in US20190083449A1, “COMBINATION THERAPY WITH AN ANTI-HYALURONAN AGENT AND THERAPEUTIC AGENT” (Halozyme, Inc., priority 2012, published 2019).

What was measured:
[1] = test system: B16 melanoma model; settings: oral administration at 600 mg/kg/d; cited from earlier work
[2] = route (IV or PO); cited from earlier work
[3] = biological target: T1, cytidine deaminase (Homo sapiens, UniProt P32320); settings: cited from earlier work; for Km: enzyme purified from human liver
T1 construct: for the enzyme purified from human liver; from tissue; host or cells: human liver

[4] = test system: BxPC3 pancreatic cancer cell line; assay: Median survival time to endpoint in BxPC3 xenograft model; type: in vivo, mouse; settings: three four-week dosing cycles; PEGPH20 4.5 mg/mL, nab-paclitaxel 10 mg/kg, gemcitabine 180 mg/kg; endpoint tumor >2000 mm^3, >20% bodyweight loss, duress or death
Procedure: Following the first four week dosing cycle as set forth in part A, the dosing cycle was repeated two times and time to survival endpoint was followed over time. Briefly, in each dosing cycle, animals were treated with vehicle or PEGPH20 (4.5 mg/mL) with or without nab-paclitaxel (10 mg/kg) intravenously twice a week for four weeks. In each cycle, groups receiving gemcitabine were administered gemcitabine (180 mg/kg) 24 hours after PEGPH20 and/or nab-paclitaxel every 7 days for three weeks of the dose cycle. Time to survival endpoint, a surrogate of animal survival, was defined as (a) time to tumor volume of greater than 2000 mm^3, (b) time to a greater than 20% bodyweight loss, or (c) time to animal duress or death.

[5] = test system: carbohydrate antigen 19-9 (CA19-9); assay: Serum CA19-9 tumor biomarker ELISA in BxPC3 xenograft model; type: in vivo, mouse; settings: day 20 of first dosing cycle
Procedure: (§1) Biomarkers carbohydrate antigen 19-9 (CA19-9) and carcinoembryonic antigen (CEA) associated with pancreatic cancer were tested to measure therapeutic response. Animals were treated as described in part A. Serum was collected from satellite animals (n≤3) from each group on day 0, 6, 13 and 20 of the first dosing cycle. Human CA19-9 was measured using a CA 19-9 ELISA kit (Catalog No. CA199T, Calbiotech, Spring Valley, Calif.) and CEA tumor antigen was measured using a CEA ELISA kit (Catalog No. CE062T, Calbiotech, Spring Valley, Calif.).

[6] = test system: BxPC3 pancreatic cancer cell line; assay: Tumor growth inhibition in BxPC3 xenograft model, PEGPH20, nab-paclitaxel and/or gemcitabine; type: in vivo, mouse
Procedure: The human pancreatic cancer xenograft model described in Example 1 was used to evaluate the antitumor effects of PEGPH20 and nab-paclitaxel combination therapy in further combination with gemcitabine treatment. Prior to performing the study, a route and dose level for gemcitabine was selected based. […] The results are depicted in FIG. 2. […] Gemcitabine was administered intraperitoneally 24 hours after PEGPH20 and/or nab-paclitaxel every 7 days for three weeks of the dose cycle. […] The results are depicted in FIG. 3. […] Table 6 depicts the results as the percentage growth inhibition relative to vehicle as determined from tumor volume measurements at day 26.

[7] = rapid deamination by deoxycytidine deaminase to dFdU; cited from earlier work
[8] = test system: carcinoembryonic antigen (CEA); assay: Serum CEA tumor biomarker ELISA in BxPC3 xenograft model; type: in vivo, mouse; settings: day 20 of first dosing cycle
Procedure: as §1

[9] = test system: pancreatic cancer; settings: cited from earlier work

T1 sequence (P32320 whole entry): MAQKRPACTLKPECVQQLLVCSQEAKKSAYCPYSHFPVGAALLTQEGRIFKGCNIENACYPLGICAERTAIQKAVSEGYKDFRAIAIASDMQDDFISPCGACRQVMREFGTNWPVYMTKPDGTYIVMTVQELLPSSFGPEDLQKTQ

In the case of `Cc1cc(=O)oc2cc(O)ccc12` [4-MU, 7-hydroxy-4-methylcoumarin], the reduction of metastases [1] is listed as 64%.
For `C[C@]12CCC(=O)C=C1CC[C@@H]1[C@@H]2[C@@H](O)C[C@@]2(C)[C@H]1CC[C@]2(O)C(=O)CO` [Hydrocortisone], the “Equivalent Potency” value [2] is listed as 20 mg.
For `C[C@H]1C[C@@H]2[C@H]([C@@H](O)C[C@@]3(C)[C@H]2CC[C@]3(O)C(=O)COC(=O)CCC(=O)O)[C@@]2(C)C=CC(=O)C=C12` [Methylprednisolone sodium succinate], the “Equivalent Potency” value [2] is given as 4 mg.
For `C[C@]12C=CC(=O)C=C1CC[C@@H]1[C@@H]2[C@@H](O)C[C@@]2(C)[C@H]1CC[C@]2(O)C(=O)CO` [Prednisolone], the “Equivalent Potency” value [2] is listed as 5 mg.
In the case of `Nc1ncn([C@H]2C[C@H](O)[C@@H](CO)O2)c(=O)n1` [decitabine, 5-aza-2′-deoxycytidine], the Km [3] is listed as 250 µM.
For `Nc1ccn([C@H]2C[C@H](O)[C@@H](CO)O2)c(=O)n1` [deoxycytidine], the “rate of deamination relative to decitabine” value ([3]; at equal concentrations) is listed as “about 6 fold” and the Km [3] is listed as 12 µM.
With `Nc1ccn([C@@H]2O[C@H](CO)[C@@H](O)C2(F)F)c(=O)n1` [gemcitabine, 2′-deoxy-2′,2′-difluorocytidine] the “Median Survival Time” value [4] was 38 days, the “level of CA19-9 marker in serum” value [5] was “approximately similar to vehicle only control” and the “Tumor Growth Inhibition (% of vehicle control)” value ([6]; day 26, PEGPH20 4.5 mg/kg i.v. 2x/wk, nab-paclitaxel 10 mg/kg i.v. 2x/wk, gemcitabine 180 mg/kg i.p. weekly) was 25%. The “antitumor activity (in words)” value ([6]; four week dose cycle, FIG. 3) was “some antitumor activity”, the “tumor growth compared to vehicle only (in words)” value ([6]; gemcitabine 60, 120, 180 and 240 mg/kg once a week (day 0, 7, 14, 21)) was “inhibited tumor growth at all doses tested” and the half-life in plasma [7] was “approximately 10 minutes”. The “level of CEA marker in serum” value [8] was “approximately 15 ng/mL”, the “survival compared to patients who had surgery alone” value ([9]; adjuvant setting) was “increased survival by two months” and the median survival ([9]; gemcitabine monotherapy) was “over 5 months”.
